{"source": "patent US7973043B2", "about": "“Combination therapy for depression, prevention of suicide, and various medical and psychiatric conditions” (priority 2002, dated 2011)", "key": {"[1]": {"details": "before the X-ray changes; cited from earlier work"}, "[2]": {"details": "combined data from many studies; cited from earlier work"}, "[3]": {"details": "cited from earlier work; for annual risk of TD as fraction of the risk associated with haloperidol: relative to haloperidol"}, "D2 receptor": {"molecular_target": "D2 receptor (Homo sapiens, UniProt P14416)", "sequence (P14416 whole entry)": "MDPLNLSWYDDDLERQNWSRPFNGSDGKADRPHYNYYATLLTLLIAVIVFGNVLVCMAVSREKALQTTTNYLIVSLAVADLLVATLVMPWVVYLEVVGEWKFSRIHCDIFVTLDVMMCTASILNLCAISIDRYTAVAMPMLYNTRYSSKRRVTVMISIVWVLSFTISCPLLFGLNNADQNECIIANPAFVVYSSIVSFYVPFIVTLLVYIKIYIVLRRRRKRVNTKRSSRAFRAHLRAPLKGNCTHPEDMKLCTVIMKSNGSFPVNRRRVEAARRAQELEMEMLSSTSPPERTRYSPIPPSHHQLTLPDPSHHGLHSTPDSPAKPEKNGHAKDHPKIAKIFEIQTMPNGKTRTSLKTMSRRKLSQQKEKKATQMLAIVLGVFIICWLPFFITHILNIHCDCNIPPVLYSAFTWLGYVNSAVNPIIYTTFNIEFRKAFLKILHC", "details": "relative to risperidone and olanzapine; cited from earlier work"}, "[4]": {"details": "antipsychotic alone; cited from earlier work"}}, "data": [{"compound": "N[C@@H]1CONC1=O", "note": "[DCS]", "values": [{"measurement": "antidepressant effect", "setting": "[1]", "result": "prompt antidepressant effects"}]}, {"compound": "Cc1cc2c(s1)Nc1ccccc1N=C2N1CCN(C)CC1", "note": "[olanzapine]", "values": [{"measurement": "relative risk of drug-induced acute EPS in declining order", "setting": "[2]", "result": "risperidone >ziprasidone >=olanzapine >quetiapine"}, {"measurement": "One year risk of TD", "setting": "[3]; all patients", "result": 0.52, "unit": "%"}, {"measurement": "annual risk of TD as fraction of the risk associated with haloperidol", "setting": "[3]", "result": "about 1/12"}]}, {"compound": "OCCOCCN1CCN(C2=Nc3ccccc3Sc3ccccc32)CC1", "note": "[quetiapine]", "values": [{"measurement": "relative risk of drug-induced acute EPS in declining order", "setting": "[2]", "result": "risperidone >ziprasidone >=olanzapine >quetiapine"}, {"measurement": "dissociation from the dopamine receptor", "setting": "D2 receptor", "result": "fast dissociation"}, {"measurement": "adverse effect", "setting": "hypothetical cases", "result": "lightheadedness"}, {"measurement": "time until suicidality vanishes", "setting": "second hypothetical case, MDD, quetiapine 50 mg added to paroxetine 20 mg q d", "result": 24, "unit": "h"}]}, {"compound": "Cc1nc2n(c(=O)c1CCN1CCC(c3noc4cc(F)ccc34)CC1)CCCC2", "note": "[risperidone]", "values": [{"measurement": "activity in the chronic mild stress (CMS) model", "setting": "[4]", "result": "ineffective"}, {"measurement": "annual risk of TD as fraction of the risk associated with haloperidol", "setting": "[3]", "result": "⅙"}]}, {"compound": "O=C1Cc2cc(CCN3CCN(c4nsc5ccccc45)CC3)c(Cl)cc2N1", "note": "[ziprasidone]", "values": [{"measurement": "relative risk of drug-induced acute EPS in declining order", "setting": "[2]", "result": "risperidone >ziprasidone >=olanzapine >quetiapine"}]}]}
